Literature values, collected in patent US7288270B1, “Therapeutic composition for the prevention and treatment of mucositis and mucosal disorders” (priority 2002, dated 2007).

Tests used:
[1] = tested on: Gram negative bacteria that tend to colonize the oral cavity; conditions: patients undergoing radiation therapy
mucositis [2] = conditions: human, in vivo
eczema = conditions: ointment, topical
Herpes virus = conditions: in test tubes
mucositis [3] = conditions: subsequent randomized and controlled studies
Staphylococcus aureus = conditions: in the solvent dimethyl sulfoxide; one range given for three species
Enterococcus faecalis = conditions: in the solvent dimethyl sulfoxide; one range given for three species
Pseudomonas aeruginosa = conditions: in the solvent dimethyl sulfoxide; one range given for three species
[4] = tested on: dermatophytes (Trichophyton mentagrophytes, Trichophyton tonsurans, Trichophyton rubrum, Epidermophyton floccosum, Microsporum gypseum)
HSV-1 = conditions: dose-dependent, reversible manner
HSV-2 = conditions: dose-dependent, reversible manner

Structure (SMILES): [H]/N=C(\N/C(=N/[H])NCCCCCCNC(=N)NC(=N)Nc1ccc(Cl)cc1)Nc1ccc(Cl)cc1 [chlorhexidine, Chlorhexidine]
- effectiveness against Gram negative bacteria of the oral cavity [1]: relatively ineffective
- incidence of mucositis (mucositis [2]): higher incidence of mucositis

Structure (SMILES): CC1(C)[C@@H](O)CC[C@]2(C)[C@H]3C(=O)C=C4[C@@H]5C[C@@](C)(C(=O)O)CC[C@]5(C)CC[C@@]4(C)[C@]3(C)CC[C@@H]12 [glycyrrhetinic acid]
- improvement of eczema compared with hydrocortisone (eczema): as effective as hydrocortisone

Structure (SMILES): CC1(C)[C@@H](O[C@H]2O[C@H](C(=O)O)[C@@H](O)[C@H](O)[C@H]2O[C@@H]2O[C@H](C(=O)O)[C@@H](O)[C@H](O)[C@H]2O)CC[C@]2(C)[C@H]3C(=O)C=C4[C@@H]5C[C@@](C)(C(=O)O)CC[C@]5(C)CC[C@@]4(C)[C@]3(C)CC[C@@H]12 [glycyrrhizic acid]
- inhibition of herpes virus (Herpes virus): inhibited

Structure (SMILES): CC(=O)CCCCn1c(=O)c2c(ncn2C)n(C)c1=O [pentoxifylline]
- benefit in mucositis (mucositis [3]): failed to demonstrate any benefit

Structure (SMILES): Oc1ccc(/C=C/c2cc(O)cc(O)c2)cc1 [resveratrol, 3,5,4′-trihdyroxystilbene]
- concentration at which growth was inhibited (Staphylococcus aureus): 171 to 342 µg/mL
- concentration at which growth was inhibited (Enterococcus faecalis): 171 to 342 µg/mL
- concentration at which growth was inhibited (Pseudomonas aeruginosa): 171 to 342 µg/mL
- concentration at which growth of dermatophytes was inhibited [4]: 25 to 50 µg/mL
- inhibition of HSV-1 replication (HSV-1): inhibit
- inhibition of HSV-2 replication (HSV-2): inhibit
